According to patent EP4420661B1, “SMALL MOLECULES TARGETING GLYCOPROTEIN VI AS ANTIPLATELET AGENTS FOR USE IN THE PREVENTION AND/OR TREATMENT OF THROMBOSIS AND ASSOCIATED PATHOLOGIES” (Universidade de Santiago de Compostela, priority 2023, dated 2024):

How the values were obtained:
Type in all cases: in vitro ADME
[1] = plasmatic stability, rat plasma; conditions: for Plasmatic stability: Rat plasma
Description: (§1) Rat, human, mouse and dog plasma pooled from healthy donors extracted in citrate tubes was employed in the assay.
(§2) […] Then 300µl Acetonitrile were added for precipitating plasma protein, and the plate was centrifuged at 4000 g for 60 min at 4°C.
(§3) Supernatant was taken and analyzed by UPLC/MS/MS for sample quantification. Stationary phase: Reverse phase ACQUITY BEH C18 1.7µm 2.1x50mm (Waters) Mobile phase: 0.1% Formic acid water/0.1% formic acid in acetonitrile Gradient: Table 4: UPLC gradient / Plasmatic stability assay
(§4) The chromatographic equipment employed was an UPLC QSM Waters Acquity. Compound concentrations were calculated from the MS peak areas.

[2] = metabolic stability, rat microsomes; conditions: Rat microsomes
Description: (§5) Microsomes from Tebu-bio Xenotech were employed in the assay, having a content of 20 mg/ml of protein. The following quantities were added to each well of a 96-well microplate. Table 6: Metabolic stability assay.
(§6) Plates were incubated at 37°C and 75 µL samples were taken at 0, 10, 20, 40 and 60 minutes.
(§7) Samples were transferred to a microplate and 75 µl Acetonitrile + IS(Rolipram) were added for inactivating the microsomes, and 30 µl of H2O with 0.5% formic acid for improving the chromatographic conditions and kept at 4°C. When all the samples were taken the plate was centrifuged at […] for 30 min at 15°C. Stationary phase: ACQUITY BEH C18 1.7µm 2.1x50mm (Waters) Mobile phase: A: 0.1% formic; B: acetonitrile+0.1% formic acid Gradient: Table 6: UPLC gradient / Metabolic stability assay
(§8) Metabolic stability was calculated from the logarithm of the remaining compound at each of the times evaluated.

[3] = plasmatic stability, mouse plasma; parameters: unit not given beside the values
Description: as §1, §2, §3, §4

CYP2C9 = target: T1, CYP2C9 (Homo sapiens, UniProt P11712); assay: CYP inhibition, liver microsomes, substrate cocktail
T1 construct: 0.5 mg protein/mL of liver microsomes (HLM Xenotech); tissue Xenotech; host or cells: liver microsomes
Description: (§9) Cytochrome P450 (CYP) are a family of enzymes which play a major role in the metabolism of drugs. Assessment of the potential of a compound to inhibit a specific cytochrome P450 enzyme is important as co-administration of compounds may result in one or both inhibiting the other's metabolism.
(§10) All the incubations were performed in 250 µL reaction medium containing sodium/potassium phosphate buffer 50mM, pH 7.4, 3mM MgCl2, an NADPH regeneration system 1mM NADP, 10mM glucose 6-phosphate, and 1 U/mL glucose 6-phosphate dehydrogenase, 0.5 mg protein/mL of liver microsomes (HLM Xenotech), and a substrate cocktail composed of phenacetin for CYP1A2, diclofenac for CYP2C9, S-mephenytoin for CYP2C19, bufuralol for CYP2D6, midazolam for CYP3A4, and testosterone for CYP3A4. Final concentrations of substrate in the reaction medium were: 10 µM phenacetin, 10 µM diclofenac, 5 µM bufuralol, 100µM S-Mephenytoin, 5 µM midazolam, and 50 µM testosterone. Following incubation at 37°C for 25 min, the reactions were terminated by the addition of ice-cold acetonitrile and the plate was centrifuged at 4000 g for 60 min at 4°C.
(§11) Supernatant was taken and analyzed by UPLC/MS/MS for sample quantification The chromatographic equipment employed was an UPLC QSM Waters Acquity. Stationary phase: Reverse phase Acquity UPLC® BEHC18 1,7 µm (2.1 mm x 100 mm) (Waters) Mobile phase: 0.1% Formic acid water/0.1% formic acid in acetonitrile. Flow: 0.8 ml/min. Gradient: Table 10: UPLC gradient / CYP inhibition assay

CYP3A4 = target: T2, CYP3A4 (Homo sapiens, UniProt P08684); assay: as above; conditions: for inhibition at 25 min, 10 µM: human, liver microsomes
T2 construct: 0.5 mg protein/mL of liver microsomes (HLM Xenotech); tissue Xenotech; host or cells: liver microsomes
Description: as §9, §10, §11

CYP2C19 = target: T3, CYP2C19 (Homo sapiens, UniProt P33261); assay: as above
T3 construct: 0.5 mg protein/mL of liver microsomes (HLM Xenotech); tissue Xenotech; host or cells: liver microsomes
Description: as §9, §10, §11

CYP1A2 = target: T4, CYP1A2 (Homo sapiens, UniProt P05177); assay: as above
T4 construct: 0.5 mg protein/mL of liver microsomes (HLM Xenotech); tissue Xenotech; host or cells: liver microsomes
T4 sequence (P05177 1-516): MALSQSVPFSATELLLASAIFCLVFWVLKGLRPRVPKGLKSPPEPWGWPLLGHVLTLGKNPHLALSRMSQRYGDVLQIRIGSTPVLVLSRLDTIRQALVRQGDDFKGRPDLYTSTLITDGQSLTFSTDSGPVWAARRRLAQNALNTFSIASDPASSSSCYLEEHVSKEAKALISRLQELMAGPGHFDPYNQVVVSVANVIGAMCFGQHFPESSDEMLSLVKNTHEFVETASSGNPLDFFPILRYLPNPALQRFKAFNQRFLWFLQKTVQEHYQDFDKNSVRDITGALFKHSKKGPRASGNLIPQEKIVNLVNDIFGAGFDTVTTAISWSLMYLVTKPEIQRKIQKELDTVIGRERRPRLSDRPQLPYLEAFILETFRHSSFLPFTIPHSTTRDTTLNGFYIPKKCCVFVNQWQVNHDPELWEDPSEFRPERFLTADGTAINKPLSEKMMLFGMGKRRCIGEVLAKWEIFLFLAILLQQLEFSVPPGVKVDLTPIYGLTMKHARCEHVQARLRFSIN
Description: as §9, §10, §11

CYP2D6 = target: T5, CYP2D6 (Homo sapiens, UniProt P10635); assay: as above
T5 construct: 0.5 mg protein/mL of liver microsomes (HLM Xenotech); tissue Xenotech; host or cells: liver microsomes
Description: as §9, §10, §11

[4] = metabolic stability, dog microsomes; conditions: Dog microsomes
Description: as §5, §6, §7, §8

T2 sequence (P08684 whole entry): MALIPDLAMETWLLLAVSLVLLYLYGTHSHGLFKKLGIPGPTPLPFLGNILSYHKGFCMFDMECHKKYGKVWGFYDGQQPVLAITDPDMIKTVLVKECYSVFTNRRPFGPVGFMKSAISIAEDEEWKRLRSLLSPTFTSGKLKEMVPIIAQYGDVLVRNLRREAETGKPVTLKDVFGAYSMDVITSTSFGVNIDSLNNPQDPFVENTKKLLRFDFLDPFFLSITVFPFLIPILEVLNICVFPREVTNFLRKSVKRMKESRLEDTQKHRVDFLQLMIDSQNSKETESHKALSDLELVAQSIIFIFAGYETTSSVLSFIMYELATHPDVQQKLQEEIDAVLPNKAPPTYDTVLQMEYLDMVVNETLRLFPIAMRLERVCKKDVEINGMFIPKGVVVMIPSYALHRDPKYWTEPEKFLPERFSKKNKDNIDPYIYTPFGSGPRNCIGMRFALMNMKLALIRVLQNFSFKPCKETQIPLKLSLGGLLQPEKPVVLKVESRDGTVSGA
T1 sequence (P11712 whole entry): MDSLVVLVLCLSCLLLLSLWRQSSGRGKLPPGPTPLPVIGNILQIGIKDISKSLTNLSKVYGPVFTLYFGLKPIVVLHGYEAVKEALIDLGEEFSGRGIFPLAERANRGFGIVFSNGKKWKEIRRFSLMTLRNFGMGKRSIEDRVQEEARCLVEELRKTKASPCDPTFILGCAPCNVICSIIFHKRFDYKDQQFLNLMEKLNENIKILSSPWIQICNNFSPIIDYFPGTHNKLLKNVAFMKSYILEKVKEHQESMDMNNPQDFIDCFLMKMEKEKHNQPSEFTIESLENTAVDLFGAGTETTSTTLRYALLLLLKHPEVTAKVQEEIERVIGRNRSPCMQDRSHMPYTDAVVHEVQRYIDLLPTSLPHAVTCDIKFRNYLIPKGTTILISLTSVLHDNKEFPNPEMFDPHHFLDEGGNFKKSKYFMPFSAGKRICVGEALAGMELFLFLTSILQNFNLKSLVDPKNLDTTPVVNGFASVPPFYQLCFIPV
T5 sequence (P10635 whole entry): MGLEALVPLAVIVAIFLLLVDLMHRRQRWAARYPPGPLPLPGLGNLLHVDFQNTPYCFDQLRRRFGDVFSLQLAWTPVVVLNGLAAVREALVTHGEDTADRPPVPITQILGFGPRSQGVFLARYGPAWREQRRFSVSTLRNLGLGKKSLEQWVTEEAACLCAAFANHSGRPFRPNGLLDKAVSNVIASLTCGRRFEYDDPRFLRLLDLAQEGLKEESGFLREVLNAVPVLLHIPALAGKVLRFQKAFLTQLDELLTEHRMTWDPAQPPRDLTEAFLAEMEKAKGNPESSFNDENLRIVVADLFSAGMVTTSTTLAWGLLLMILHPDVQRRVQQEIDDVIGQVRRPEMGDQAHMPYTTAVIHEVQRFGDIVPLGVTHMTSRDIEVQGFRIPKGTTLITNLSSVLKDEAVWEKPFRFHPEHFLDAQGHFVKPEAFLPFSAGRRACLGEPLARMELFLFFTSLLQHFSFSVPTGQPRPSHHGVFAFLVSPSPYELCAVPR
T3 sequence (P33261 whole entry): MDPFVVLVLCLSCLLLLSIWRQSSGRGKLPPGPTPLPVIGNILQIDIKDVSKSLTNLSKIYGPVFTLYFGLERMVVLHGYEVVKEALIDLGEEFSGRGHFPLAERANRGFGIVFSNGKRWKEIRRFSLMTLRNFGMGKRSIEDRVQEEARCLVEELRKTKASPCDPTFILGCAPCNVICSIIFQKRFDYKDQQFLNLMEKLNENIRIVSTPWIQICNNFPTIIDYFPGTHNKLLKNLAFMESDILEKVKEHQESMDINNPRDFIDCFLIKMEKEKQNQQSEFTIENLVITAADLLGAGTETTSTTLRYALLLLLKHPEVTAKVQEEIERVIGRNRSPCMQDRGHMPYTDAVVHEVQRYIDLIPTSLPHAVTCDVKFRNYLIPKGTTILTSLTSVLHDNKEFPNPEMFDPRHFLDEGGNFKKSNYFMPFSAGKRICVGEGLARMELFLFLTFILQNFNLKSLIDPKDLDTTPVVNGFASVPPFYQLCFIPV

For `O=C(Cc1ccc2c(c1)OCCO2)Nc1nc(-c2ccc3c(c2)CCC(=O)N3)cs1` [Compound (If)], the Plasmatic stability ([1]; 10µM, t 0 min) was 100.0, the Plasmatic stability ([1]; 10µM, t 60 min) was 105.5 and the Plasmatic stability ([1]; 10µM, t 120 min) was 105.4. The Plasmatic stability ([1]; 10µM, t 360 min) was 81.6, the Plasmatic stability ([1]; 100µM, t 0 min) was 100.0 and the Plasmatic stability ([1]; 100µM, t 60 min) was 88.8. For the same compound, the Plasmatic stability ([1]; 100µM, t 120 min) was 95.1, the Plasmatic stability ([1]; 100µM, t 360 min) was 65.7 and the “plasmatic stability (in words)” value ([1]; rats) was “high plasmatic stability”. The half-life [2] was 62.1 min, the microsomal CLint [2] was 8.89 µL/min/mg and the “% remanent (*)” value ([2]; (*) sampling time 60 min) was 49.9%. For the same compound, the Plasmatic stability ([3]; 10µM, t 0 min) was 100.0, the Plasmatic stability ([3]; 10µM, t 60 min) was 67.8 and the Plasmatic stability ([3]; 10µM, t 120 min) was 41.6. The Plasmatic stability ([3]; 10µM, t 360 min) was 5.6, the Plasmatic stability ([3]; 100µM, t 0 min) was 100.0 and the Plasmatic stability ([3]; 100µM, t 60 min) was 77.6. It also gave a Plasmatic stability ([3]; 100µM, t 120 min) of 57.5, a Plasmatic stability ([3]; 100µM, t 360 min) of 9.6 and an IC50 (CYP2C9; CYP2C9, substrate diclofenac) of over 10 µM. It also gave an inhibition at 25 min, 10 µM (CYP2C9; human, liver microsomes, pH 7.4, CYP2C9, 10µM, substrate diclofenac) of -0.7%, an IC50 (CYP3A4; CYP3A4 (Midazolam)) of over 10 µM and an IC50 (CYP3A4; CYP3A4 (Testosterone), 25 min) of over 10 µM. The inhibition at 25 min, 10 µM (CYP3A4; pH 7.4, CYP3A4 (Midazolam)) was -9.4%, the inhibition at 25 min, 10 µM (CYP3A4; pH 7.4, CYP3A4 (Testosterone)) was -12.8% and the IC50 (CYP2C19; CYP2C19, substrate S-mephenytoin) was over 10 µM. It also gave an inhibition at 25 min, 10 µM (CYP2C19; human, liver microsomes, pH 7.4, CYP2C19, 10µM, substrate S-mephenytoin) of -18.8%, an IC50 (CYP1A2; CYP1A2, substrate phenacetin) of over 10 µM and an inhibition at 25 min, 10 µM (CYP1A2; human, liver microsomes, pH 7.4, CYP1A2, 10µM, substrate phenacetin) of -5.3%. The IC50 (CYP2D6; CYP2D6, substrate bufuralol) was over 10 µM, the inhibition at 25 min, 10 µM (CYP2D6; human, liver microsomes, pH 7.4, CYP2D6, 10µM, substrate bufuralol) was -2.9% and the half-life [4] was 325 min. The microsomal CLint [4] was 2.17 µL/min/mg and the “% remanent (*)” value ([4]; (*) sampling time 60 min) was 89.2%.
